Assay results published in PMC4558462, “A new small molecule inhibitor of soluble guanylate cyclase” (Bioorganic & Medicinal Chemistry, 2015).

These compounds were tested against T1, sGC (Homo sapiens, UniProt Q02108+Q02153) (assay: Earlier laboratory observation of effect on sGC (data not shown)). Conditions: low millimolar concentrations.
T1 sequence (Q02108 1-690): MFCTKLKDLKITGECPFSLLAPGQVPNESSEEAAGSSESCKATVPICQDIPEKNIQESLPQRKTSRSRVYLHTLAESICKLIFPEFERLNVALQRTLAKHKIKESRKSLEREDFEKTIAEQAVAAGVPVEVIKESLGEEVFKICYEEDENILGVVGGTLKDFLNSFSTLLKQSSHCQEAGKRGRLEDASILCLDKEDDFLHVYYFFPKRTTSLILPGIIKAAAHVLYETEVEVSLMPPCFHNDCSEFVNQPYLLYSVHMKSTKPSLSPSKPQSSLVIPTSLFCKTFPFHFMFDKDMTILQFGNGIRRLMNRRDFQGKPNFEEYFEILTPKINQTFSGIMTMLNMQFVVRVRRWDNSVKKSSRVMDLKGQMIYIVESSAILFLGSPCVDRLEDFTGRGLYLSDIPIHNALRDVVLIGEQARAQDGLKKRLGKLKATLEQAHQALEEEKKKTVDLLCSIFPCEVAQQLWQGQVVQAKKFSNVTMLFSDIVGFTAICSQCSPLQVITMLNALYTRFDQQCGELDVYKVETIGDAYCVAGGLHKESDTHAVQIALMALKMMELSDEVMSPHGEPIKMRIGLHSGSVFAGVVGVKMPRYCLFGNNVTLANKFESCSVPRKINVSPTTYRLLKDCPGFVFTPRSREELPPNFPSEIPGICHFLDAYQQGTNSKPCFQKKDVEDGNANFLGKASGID
T1 sequence (Q02153 1-619): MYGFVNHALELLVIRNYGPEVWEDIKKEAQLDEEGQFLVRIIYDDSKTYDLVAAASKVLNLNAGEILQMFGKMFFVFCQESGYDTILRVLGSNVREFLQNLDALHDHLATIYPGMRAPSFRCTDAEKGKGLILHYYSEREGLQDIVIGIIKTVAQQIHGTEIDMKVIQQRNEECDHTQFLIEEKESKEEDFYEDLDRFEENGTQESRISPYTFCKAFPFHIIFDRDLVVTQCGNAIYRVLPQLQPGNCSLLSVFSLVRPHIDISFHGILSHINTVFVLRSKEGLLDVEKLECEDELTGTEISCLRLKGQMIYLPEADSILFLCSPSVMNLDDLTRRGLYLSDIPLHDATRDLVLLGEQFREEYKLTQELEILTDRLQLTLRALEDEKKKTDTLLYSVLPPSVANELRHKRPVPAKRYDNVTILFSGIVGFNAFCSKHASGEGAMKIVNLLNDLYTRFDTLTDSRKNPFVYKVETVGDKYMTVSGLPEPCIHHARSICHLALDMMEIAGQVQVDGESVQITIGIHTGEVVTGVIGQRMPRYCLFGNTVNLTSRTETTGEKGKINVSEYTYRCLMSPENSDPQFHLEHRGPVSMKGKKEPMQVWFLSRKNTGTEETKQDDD
Format: biochemical
Protocol: In the course of studies in our laboratory we observed activation of sGC with the anti-epileptic drug lamotrigine 2 and inhibition with lamotrigine analogues sipatrigine 3 and 4, all at low millimolar concentrations (data not shown) (Fig. 1). These compounds were used as the starting point for a screening study to find new inhibitors of sGC. The strategy was to conduct several rounds of similarity searching and screening to identify the best inhibitors. Some synthetic studies were conducted on the best hit to explore the structure–activity relationships.

| SMILES | effect on sGC |
| --- | --- |
| Nc1nnc(-c2cccc(Cl)c2Cl)c(N)n1 [Compound 2, lamotrigine] | activation |
| Nc1nc(N)c(-c2cc(Cl)cc(Cl)c2Cl)c(C(F)(F)F)n1 [Compound 4] | inhibition |
| CN1CCN(c2ncc(-c3cc(Cl)cc(Cl)c3Cl)c(N)n2)CC1 [Compound 3, sipatrigine] | inhibition |
